Converted amounts (≈) assume the structure as drawn.
Experiments:
Type in all cases: cell-based
HeLa/bcl-2 cells [1] = experiment: Apoptosis inducing activity (caspase activation, Ac-DEVD-AMC) for HeLa/bcl-2 cells; conditions: Drug concentration: 5 μM; 6 hours; No drug = 100
Procedure: (§1) Apoptosis inducing activity of the medicaments of the present invention was determined by measuring enzymatic activity of caspase activated in the process of apoptosis induction as described below,. HeLa cells or HeLa cells into which the bcl-2 gene was introduced (HeLa/bcl-2 cells) contained in DME medium containing 10% fetal calf serum (NISSUI PHARMACEUTICAL CO., LTD., referred to as “Medium A” hereinafter in the example) were placed in each well of 96-well microtiter plates in an amount of 3×10^4 cell. The cells on the plates were cultured in a carbon dioxide gas incubator at 37° C. for 12 hours, then a test compound appropriately diluted with Medium A was added to each well in an amount of 10 μl, and the cells were further cultured in a carbon dioxide gas incubator at 37° C. for 6 hours. After the culture supernatant was removed, the cells were lysed, and to the cell lysate was added a fluorescent substrate of caspase, Ac-DEVD-AMC (Peptide Laboratory). Then, the caspase activity was determined by measuring AMC (7-amino-4-methylcoumarin) released as a result of degradation of Ac-DEVD-AMC by caspase remained in the cell lysate through measurement of fluorescence intensity at 460 nm.

HeLa/bcl-2 cells [2] = experiment: Anti-Fas antibody-dependent apoptosis inducing activity for HeLa/bcl-2 cells; conditions: Drug concentration: 5 μM, added simultaneously with anti-Fas monoclonal antibody (CH11, 10 ng); 6 hours; Anti-Fas antibody = 100
Text: In HeLa/bcl-2 cells into which the bcl-2 gene is introduced, apoptosis is suppressed by the bcl-2 gene. For this reason, they acquire resistance to apoptosis induced by various anticancer agents or anti-Fas antibodies. Test compounds were examined in their eliminating effect on the apoptosis resistance of HeLa/bcl-2 by simultaneously adding an anti-Fas antibody and each test compound to HeLa/bcl-2 cells and detecting enzymatic activity of caspase that was activated in the process of apoptosis induction as described below. HeLa/bcl-2 cells in Medium A were placed in each well of a 96-well microtiter plate in an amount of 3×10^4 cells. The plate was incubated in a carbon dioxide gas incubator at 37° C. for 12 hours, then each test compound appropriately diluted with Medium A (10 μl) and an anti-Fas monoclonal antibody (CH11, 10 ng) were simultaneously added to each well, and the plate was further incubated in a carbon dioxide gas incubator at 37° C. for 6 hours. After the culture supernatant was removed, the cells were lysed, and caspase activity was measured in the same manner as in Test Example 1. The enzymatic activity of caspase, which was not increased by an anti-Fas antibody alone, was increased by the treatment with the anti-Fas antibody together with the test compound.

HeLa cells = experiment: Apoptosis inducing activity (caspase activation, Ac-DEVD-AMC) for HeLa cells; conditions: Drug concentration: 5 μM; 6 hours; No drug = 100
Procedure: as §1

[3] = test system: Bacillus Subtilis ATCC107O7; experiment: Antibacterial activity, agar dilution method; set-up: key: —: Inactive; conditions: pH 7
Procedure: (§2) Antibacterial activity was determined by the agar dilution method using a medium prepared by dissolving 3 g of Bacto trypton (Difco), 3 g of meat extract, 1 g of yeast extract, 1 g of glucose, and 16 g of agar in 1 L of water (pH 7). The antibacterial activities of typical compounds are shown in Table 6 as minimum growth inhibitory concentrations (MIC)

[4] = test system: Staphylococcus aureus ATCC6538P; experiment: Antibacterial activity, agar dilution method; set-up: key: —: Inactive; conditions: pH 7
Procedure: as §2

[5] = test system: Enterococcus hirae ATCC10541; experiment: Antibacterial activity, agar dilution method; set-up: key: —: Inactive; conditions: pH 7
Procedure: as §2

MCF-7 cell = experiment: Growth inhibition test for hormone-dependent human breast cancer MCF-7 cell strain (MTT); conditions: 72 hours
Procedure: Cells were placed in each well of a 96-well microplate (Nunc, #167008) in an amount of 4000 cells per well, and the cells were pre-cultured in RPMI 1640 medium containing 5% fetal calf serum (FCS) for 24 hours in a 5% carbon dioxide gas incubator at 37° C. Then, a solution of each test compound in dimethyl sulfoxide (DMSO) prepared at a concentration of 10 mmol/L was serially diluted with the culture medium and added to each well (final volume: 100 μL/well). The cells were then further cultured for 72 hours in a 5% carbon dioxide gas incubator at 37° C. Five hours before completion of the culture, 4,5-dimethylthiazol-2-yl)-2,5-diphenyltetrazolium bromide (Sigma, abbreviated as “MTT” hereinafter) prepared at a concentration of 6 mg/mL with the culture medium was added in an amount of 10 μL per well. After the completion of culture, the medium was sucked, DMSO was added to each well in an amount of 150 μL per well and the mixture was vigorously stirred by using a plate mixer to completely dissolve the crystals of MTT-formazan. Then, difference of absorbance at 550 nm and 630 nm was determined by using a microplate reader (M-Spmax250, Wako Pure Chemicals). Inhibitory activity on the cell growth was calculated as 50% growth inhibitory concentration (IC50) based on a 4-parameter logistic calibration curve by using the formula of the analysis software (SOFTmax-J Ver.2.1) equipped with microplate reader.

HeLa/bcl-2 cells [6] = experiment: Cytotoxic activity for HeLa/bcl-2 cells (XTT staining); conditions: 24 hours, read-out: Growth Inhibition (IC50), HeLa/bcl-2 cell
Procedure: HeLa/bcl-2 cells in Medium A were placed in each well of a 96-well microtiter plate in an amount of 3×10^4 cells. The plate was incubated in a carbon dioxide gas incubator at 37° C. for 12 hours, then 10 μl of each test compound appropriately diluted with Medium A was added to each well, and the incubation was further continued in a carbon dioxide gas incubator at 37° C.

SMILES	Rate of Caspase Activation, HeLa/bcl-2 cell (HeLa/bcl-2 cells [1]) [%]	Rate of Caspase Activation, HeLa/bcl-2 cell (HeLa/bcl-2 cells [2]) [%]	Rate of Caspase Activation, HeLa cell (HeLa cells) [%]	MIC, BS [3]	MIC, SA [4]	MIC, EH [5]	IC50 (MCF-7 cell) [nM]	IC50 (HeLa/bcl-2 cells [6]) [nM]
COC(=O)NC1C(C)OC(OC2CC=C(C)C3C=CC4C(OC5C=CC(OC(C)=O)C(C)O5)C(C)CC(C)C4C3(C)C(=O)C3=C(O)C4(CC(C=O)=CC(OC(C)=O)C4C=C2C)OC3=O)CC1(C)[N+](=O)[O-] (stereo not shown) [Compound 61]	370	452	213	10.4 µg/mL (≈ 10.6 µM)	—	—	1450	
COC(=O)NC1C(C)OC(OC2C/C=C(\C)C3C=CC4C(O[Si](C)(C)C(C)(C)C)C(C)CC(C)C4C3(C)C(=O)C3=C(O)C4(CC(C=O)=CC(O)C4/C=C/2C)OC3=O)CC1(C)[N+](=O)[O-] (stereo not shown) [Compound 22]	1078	444	243	—	42 µg/mL (≈ 46.8 µM)	21 µg/mL (≈ 23.4 µM)		1800
COC(=O)NC1C(C)OC(OC2C/C=C(\C)C3C=CC4C(OC5CCCCO5)C(C)CC(C)C4C3(C)C(=O)C3=C(O)C4(CC(C=O)=CC(OC(C)=O)C4/C=C/2C)OC3=O)CC1(C)[N+](=O)[O-] (stereo not shown) [Compound 51]		460		6.25 µg/mL (≈ 6.88 µM)	1.56 µg/mL (≈ 1.72 µM)	1.56 µg/mL (≈ 1.72 µM)	1360	
COC(=O)NC1C(C)OC(OC2C/C=C(\C)C3C=CC4C(OC5CC(OC6CCC(OC7CC(OC(C)=O)C(O)C(C)O7)C(C)O6)C(OC(C)=O)C(C)O5)C(C)CC(C)C4C3(C)C(=O)C3=C(O)C4(CC(C=O)=CC(OC(C)=O)C4/C=C/2C)OC3=O)CC1(C)[N+](=O)[O-] (stereo not shown) [Compound 65]		659		2.34 µg/mL (≈ 1.82 µM)	—	—	520	
COC(=O)NC1C(C)OC(OC2CC=C(C)C3C=CC4C(OC5CC(OC(C)=O)C(OC(C)=O)C(C)O5)C(C)CC(C)C4C3(C)C(=O)C3=C(O)C4(CC(C=O)=CC(OC(C)=O)C4C=C2C)OC3=O)CC1(C)[N+](=O)[O-] (stereo not shown) [Compound 59]				16.7 µg/mL (≈ 16.1 µM)	>66.7 µg/mL	>66.7 µg/mL	980	
COC(=O)NC1C(C)OC(OC2C/C=C(\C)C3C=CC4C(OC5CC(OC6CCC(O)C(C)O6)C(OC(C)=O)C(C)O5)C(C)CC(C)C4C3(C)C(=O)C3=C(O)C4(CC(C=NO)=CC(O)C4/C=C/2C)OC3=O)CC1(C)[N+](=O)[O-] (stereo not shown) [Compound 25]				>83 µg/mL	—	—		
COC(=O)NC1C(C)OC(OC2CC=C(C)C3C=CC4C(OC5(C)OC6OC(COC(C)=O)C(OC(C)=O)C(OC(C)=O)C6O5)C(C)CC(C)C4C3(C)C(=O)C3=C(O)C4(CC(C=O)=CC(OC(C)=O)C4C=C2C)OC3=O)CC1(C)[N+](=O)[O-] (stereo not shown) [Compound 66]				>60.0 µg/mL	60.0 µg/mL (≈ 51.9 µM)	60.0 µg/mL (≈ 51.9 µM)	1400	
COC(=O)C=CC1=CC(O)C2/C=C(\C)C(OC3CC(C)([N+](=O)[O-])C(NC(=O)OC)C(C)O3)C/C=C(\C)C3C=CC4C(OC5CC(OC6CCC(OC7CC(O)C(OC8CCC(O)C(C)O8)C(C)O7)C(C)O6)C(OC(C)=O)C(C)O5)C(C)CC(C)C4C3(C)C(=O)C3=C(O)C2(C1)OC3=O (stereo not shown) [Compound 37]				0.42 µg/mL (≈ 0.307 µM)	—	—	5110	
CCOC(OCC)C1=CC(O)C2/C=C(\C)C(OC3CC(C)([N+](=O)[O-])C(NC(=O)OC)C(C)O3)C/C=C(\C)C3C=CC4C(OC5CC(OC6CCC(OC7CC(O)C(OC8CCC(O)C(C)O8)C(C)O7)C(C)O6)C(OC(C)=O)C(C)O5)C(C)CC(C)C4C3(C)C(=O)C3=C(OC)C2(C1)OC3=O (stereo not shown) [Compound 38]				12.5 µg/mL (≈ 8.92 µM)	—	—	1220	
COC(=O)NC1C(C)OC(OC2CC=C(C)C3C=CC4C(OC5CC(OCc6ccccc6)C(OCc6ccccc6)C(COCc6ccccc6)O5)C(C)CC(C)C4C3(C)C(=O)C3=C(O)C4(CC(C=O)=CC(O)C4C=C2C)OC3=O)CC1(C)[N+](=O)[O-] (stereo not shown) [Compound 55]	448		106					
COC(=O)NC1C(C)OC(OC2CC=C(C)C3C=CC4C(OC5C=CC(O)C(C)O5)C(C)CC(C)C4C3(C)C(=O)C3=C(O)C4(CC(C=O)=CC(OC(C)=O)C4C=C2C)OC3=O)CC1(C)[N+](=O)[O-] (stereo not shown) [Compound 60]		526		>83.3 µg/mL	—	—		
COC(=O)NC1C(C)OC(OC2C/C=C(\C)C3C=CC4C(OC5CC(OC6CCC(OC7CC(O)C(OC8CCC(O)C(C)O8)C(C)O7)C(C)O6)C(OC(C)=O)C(C)O5)C(C)CC(C)C4C3(C)C(=O)C3=C(O)C4(CC(C=O)=CC(O)C4/C=C/2C)OC3=O)CC1(C)[N+](=O)[O-] (stereo not shown) [Compound 1]		964						
CC[Si](CC)(CC)OC1C=CC(OC2C(C)CC(C)C3C2C=CC2C(C)=CCC(OC4CC(C)([N+](=O)[O-])C(NC(=O)OC)C(C)O4)C(C)=CC4C(OC(C)=O)C=C(C=O)CC45OC(=O)C(=C5O)C(=O)C23C)OC1C (stereo not shown) [Compound 63]				>91.7 µg/mL	—	—	720	
COC(=O)NC1C(C)OC(OC2CC=C(C)C3C=CC4C(OC5CC(OCc6ccccc6)C(OCc6ccccc6)C(COCc6ccccc6)O5)C(C)CC(C)C4C3(C)C(=O)C3=C(O)C4(CC(C=O)=CC(OC(C)=O)C4C=C2C)OC3=O)CC1(C)[N+](=O)[O-] (stereo not shown) [Compound 56]							630	
COC(=O)NC1C(C)OC(OC2C/C=C(\C)C3C=CC4C(OC5CC(OC6CCC(OC7CC(O)C(O)C(C)O7)C(C)O6)C(OC(C)=O)C(C)O5)C(C)CC(C)C4C3(C)C(=O)C3=C(O)C4(CC(C=NO)=CC(O)C4/C=C/2C)OC3=O)CC1(C)[N+](=O)[O-] (stereo not shown) [Compound 24]				2.9 µg/mL (≈ 2.39 µM)	>92 µg/mL	>92 µg/mL		
